Where two headings read alike, the source gives them in different places.
Legend:
[1] = test system: Key Broadleaf Weed and Crop Species; assay: Post-emergent Test II herbicidal activity (Table 5); format: in vivo; details: post-emergence, 336 h, 14 days after application; for pest or weed control at 70 g/ha: application rate 70 g ai/ha; for pest or weed control at 140 g/ha: application rate 140 g ai/ha
Summary of the method: (§1)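 Spray rates: a highest rate plus ½×, ¼×, ⅛×, 1/16×, all delivered at 187 L/ha to plants at the first–second true leaf stage. Readout is a visual percent injury score at 14 d, where 100 means complete kill.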

[2] = test system: Key Grass and Sedge Weeds as well as Grass Crops; assay: Post-emergent Test II herbicidal activity (Table 6); format: in vivo; details: post-emergence, 336 h; for pest or weed control at 70 g/ha: 70 g ai/ha; for pest or weed control at 140 g/ha: 140 g ai/ha
Summary of the method: as §1

[3] = ABUTH: velvetleaf (Abutilon theophrasti), read-out: Visual Growth Reduction (%) 14 Days After Application, ABUTH
[4] = AMARE: redroot pigweed (Amaranthus retroflexus), read-out: Visual Growth Reduction (%) 14 Days After Application, AMARE
[5] = BRSNN: oilseed-rape, canola (Brassica napus), read-out: Visual Growth Reduction (%) 14 Days After Application, BRSNN
[6] = CHEAL: lambsquarters (Chenopodium album), read-out: Visual Growth Reduction (%) 14 Days After Application, CHEAL
[7] = EPHHL: wild poinsettia (Euphorbia heterophylla), read-out: Visual Growth Reduction (%) 14 Days After Application, EPHHL
[8] = HELAN: sunflower (Helianthus annuus), read-out: Visual Growth Reduction (%) 14 Days After Application, HELAN
[9] = VIOTR: wild pansy (Viola tricolor), read-out: Visual Growth Reduction (%) 14 Days After Application, VIOTR
[10] = CYPES: yellow nutsedge (Cyperus esculentus), read-out: Visual Growth Reduction (%) 14 Days After Application, CYPES
[11] = DIGSA: crabgrass (Digitaria sanguinalis), read-out: Visual Growth Reduction (%) 14 Days After Application, DIGSA
[12] = ECHCG: barnyardgrass (Echinochloa crus-galli), read-out: Visual Growth Reduction (%) 14 Days After Application, ECHCG
[13] = ORYSA: rice (Oryza sativa), crop, read-out: Visual Growth Reduction (%) 14 Days After Application, ORYSA
[14] = SETFA: giant foxtail (Setaria faberi), read-out: Visual Growth Reduction (%) 14 Days After Application, SETFA
[15] = SORVU: grain sorghum (Sorghum vulgare), read-out: Visual Growth Reduction (%) 14 Days After Application, SORVU
[16] = TRZSS (wheat, Triticum aestivum), crop, read-out: Visual Growth Reduction (%) 14 Days After Application, TRZSS
[17] = ZEAMX: maize, corn (Zea mays), crop, read-out: Visual Growth Reduction (%) 14 Days After Application, ZEAMX

With COC(=O)c1nc(-c2ccc(C#N)cc2)c(F)c(N)c1Cl [Compound 142] the pest or weed control at 70 g/ha [1, 3] was 95 to 100%, the pest or weed control at 140 g/ha [1, 3] was 95 to 100% and the pest or weed control at 70 g/ha [1, 4] was 95 to 100%. It also gave a pest or weed control at 140 g/ha [1, 4] of 95 to 100%, a pest or weed control at 70 g/ha [1, 5] of 0 to 29% and a pest or weed control at 140 g/ha [1, 5] of 0 to 29%. The pest or weed control at 70 g/ha [1, 6] was 95 to 100%, the pest or weed control at 140 g/ha [1, 6] was 95 to 100% and the pest or weed control at 70 g/ha [1, 7] was 95 to 100%. The pest or weed control at 140 g/ha [1, 7] was 95 to 100%, the pest or weed control at 70 g/ha [1, 8] was 95 to 100% and the pest or weed control at 140 g/ha [1, 8] was 95 to 100%. The pest or weed control at 70 g/ha [1, 9] was 75 to 84%, the pest or weed control at 140 g/ha [1, 9] was 85 to 94% and the pest or weed control at 70 g/ha [2, 10] was 75 to 84%. For the same compound, the pest or weed control at 140 g/ha [2, 10] was 85 to 94%, the pest or weed control at 70 g/ha [2, 11] was 60 to 74% and the pest or weed control at 140 g/ha [2, 11] was 60 to 74%. For the same compound, the pest or weed control at 70 g/ha [2, 12] was 75 to 84%, the pest or weed control at 140 g/ha [2, 12] was 85 to 94% and the pest or weed control at 70 g/ha [2, 13] was 0 to 29%. It also gave a pest or weed control at 140 g/ha [2, 13] of 0 to 29%, a pest or weed control at 70 g/ha [2, 14] of 0 to 29% and a pest or weed control at 140 g/ha [2, 14] of 0 to 29%. It also gave a pest or weed control at 70 g/ha [2, 15] of 45 to 59%, a pest or weed control at 140 g/ha [2, 15] of 45 to 59% and a pest or weed control at 70 g/ha [2, 16] of 0 to 29%. The pest or weed control at 140 g/ha [2, 16] was 30 to 44%, the pest or weed control at 70 g/ha [2, 17] was 45 to 59% and the pest or weed control at 140 g/ha [2, 17] was 60 to 74%.

Source: patent US9113629B2, “4-amino-6-(4-substituted-phenyl)-picolinates and 6-amino-2-(4-substituted-phenyl)-pyrimidine-4-carboxylates and their use as herbicides” (DOW AGROSCIENCES LLC, priority 2013, dated 2015)
